Experimental data taken from patent US9618524B2, “Method, composition, isolation and identification of a plaque particle and related biomarker” (Plaxgen Inc., priority 2012, dated 2017).

Columns and labels:
Assay in all cases: Mass spectroscopy proteomics, semi-quantitative binding affinity of serum proteins (plaqueproteome, Table 2)
Settings in all cases: higher number = stronger affinity
[1] = target: T1, Abeta-42 plaque particles (Homo sapiens, UniProt P05067)
T1 construct: Abeta 1-42
Method in brief: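 AD patient serum or plasma (50% in PBS) was incubated with Abeta-42 aggregates (30 μg) for 1 h at 37 °C, then stained with Thioflavin S for 30 min. Labeled particles were FACS-sorted, trypsin/Lys-C digested overnight and analyzed by MS/MS. Sequest searched human UniProt; Scaffold/Protein Prophet validated the identifications.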

[2] = system: High Density cholesterol (Chl Large) plaque particles; set-up: species or system human
Method in brief: (§1)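 Serum or plasma from atherosclerotic subjects, as 50% serum, was incubated with 30 μg cholesterol aggregates for 1 h at 37 °C. High- and low-density particles were then flow-sorted, trypsin-digested and analysed by MS/MS. Proteins were identified by Sequest search against human UniProt and validated with Protein Prophet.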

[3] = system: Low density cholesterol (Chl small) plaque particles; set-up: species or system human
Method in brief: as §1

[4] = target: T2, alpha-synuclein plaque particles (Homo sapiens, UniProt P37840)
T2 construct: 140 amino acids polypeptide
Method in brief: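 AD-subject plasma or serum (800 μL of 50%) mixed with 30 μg preformed alpha-synuclein aggregates for 1 h at 37 °C; Thioflavin S-positive particles isolated by flow sorting. After reduction, acrylamide alkylation and overnight tryptic digestion, serum proteins identified by MS/MS with Sequest and Scaffold.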

Tau plaque particles = system: Tau plaque particles; set-up: species or system human
Method in brief: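 Serum or plasma proteins captured on Thioflavin S-labelled Tau plaque particles (Tau-74, Tau-275 oligomers preformed in PBS at 37° C for 2 h; 1 h co-incubation at 37° C) were isolated by FACS sorting, then tryptically digested and identified by MS/MS (Sequest, human UniProt, strict trypsin).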

Ig gamma-1 chain C region
Semi-quantitative analysis of proteins binding to different plaque particles: Abeta-42 [1]: 12
Semi-quantitative analysis of proteins binding to different plaque particles: Chl Large [2]: 41
Semi-quantitative analysis of proteins binding to different plaque particles: Chl small [3]: 51
Semi-quantitative analysis of proteins binding to different plaque particles: Synuclein [4]: 44
Semi-quantitative analysis of proteins binding to different plaque particles: Tau (Tau plaque particles): 27

Ig gamma-4 chain C region
Semi-quantitative analysis of proteins binding to different plaque particles: Abeta-42 [1]: 7
Semi-quantitative analysis of proteins binding to different plaque particles: Chl Large [2]: 7
Semi-quantitative analysis of proteins binding to different plaque particles: Chl small [3]: 11
Semi-quantitative analysis of proteins binding to different plaque particles: Synuclein [4]: 8
Semi-quantitative analysis of proteins binding to different plaque particles: Tau (Tau plaque particles): 11

Ig heavy chain V-III region BRO
Semi-quantitative analysis of proteins binding to different plaque particles: Abeta-42 [1]: 7
Semi-quantitative analysis of proteins binding to different plaque particles: Chl Large [2]: 5
Semi-quantitative analysis of proteins binding to different plaque particles: Chl small [3]: 6
Semi-quantitative analysis of proteins binding to different plaque particles: Synuclein [4]: 4
Semi-quantitative analysis of proteins binding to different plaque particles: Tau (Tau plaque particles): 5

Ig heavy chain V-III region BUT
Semi-quantitative analysis of proteins binding to different plaque particles: Abeta-42 [1]: 2
Semi-quantitative analysis of proteins binding to different plaque particles: Chl Large [2]: 1
Semi-quantitative analysis of proteins binding to different plaque particles: Chl small [3]: 1
Semi-quantitative analysis of proteins binding to different plaque particles: Synuclein [4]: 1
Semi-quantitative analysis of proteins binding to different plaque particles: Tau (Tau plaque particles): 1

Ig heavy chain V-III region Gal
Semi-quantitative analysis of proteins binding to different plaque particles: Abeta-42 [1]: 2
Semi-quantitative analysis of proteins binding to different plaque particles: Chl Large [2]: 0
Semi-quantitative analysis of proteins binding to different plaque particles: Chl small [3]: 1
Semi-quantitative analysis of proteins binding to different plaque particles: Synuclein [4]: 2
Semi-quantitative analysis of proteins binding to different plaque particles: Tau (Tau plaque particles): 4

Ig heavy chain V-III region JON
Semi-quantitative analysis of proteins binding to different plaque particles: Abeta-42 [1]: 0
Semi-quantitative analysis of proteins binding to different plaque particles: Chl Large [2]: 0
Semi-quantitative analysis of proteins binding to different plaque particles: Chl small [3]: 1
Semi-quantitative analysis of proteins binding to different plaque particles: Synuclein [4]: 1
Semi-quantitative analysis of proteins binding to different plaque particles: Tau (Tau plaque particles): 1

Ig heavy chain V-III region NIE
Semi-quantitative analysis of proteins binding to different plaque particles: Abeta-42 [1]: 0
Semi-quantitative analysis of proteins binding to different plaque particles: Chl Large [2]: 1
Semi-quantitative analysis of proteins binding to different plaque particles: Chl small [3]: 1
Semi-quantitative analysis of proteins binding to different plaque particles: Synuclein [4]: 1
Semi-quantitative analysis of proteins binding to different plaque particles: Tau (Tau plaque particles): 0

Ig heavy chain V-III region TEI
Semi-quantitative analysis of proteins binding to different plaque particles: Abeta-42 [1]: 5
Semi-quantitative analysis of proteins binding to different plaque particles: Chl Large [2]: 4
Semi-quantitative analysis of proteins binding to different plaque particles: Chl small [3]: 5
Semi-quantitative analysis of proteins binding to different plaque particles: Synuclein [4]: 3
Semi-quantitative analysis of proteins binding to different plaque particles: Tau (Tau plaque particles): 4

Ig heavy chain V-III region TIL
Semi-quantitative analysis of proteins binding to different plaque particles: Abeta-42 [1]: 5
Semi-quantitative analysis of proteins binding to different plaque particles: Chl Large [2]: 0
Semi-quantitative analysis of proteins binding to different plaque particles: Chl small [3]: 2
Semi-quantitative analysis of proteins binding to different plaque particles: Synuclein [4]: 0
Semi-quantitative analysis of proteins binding to different plaque particles: Tau (Tau plaque particles): 2

Ig heavy chain V-III region TUR
Semi-quantitative analysis of proteins binding to different plaque particles: Abeta-42 [1]: 4
Semi-quantitative analysis of proteins binding to different plaque particles: Chl Large [2]: 2
Semi-quantitative analysis of proteins binding to different plaque particles: Chl small [3]: 3
Semi-quantitative analysis of proteins binding to different plaque particles: Synuclein [4]: 1
Semi-quantitative analysis of proteins binding to different plaque particles: Tau (Tau plaque particles): 0

Ig heavy chain V-III region VH26
Semi-quantitative analysis of proteins binding to different plaque particles: Abeta-42 [1]: 7
Semi-quantitative analysis of proteins binding to different plaque particles: Chl Large [2]: 2
Semi-quantitative analysis of proteins binding to different plaque particles: Chl small [3]: 3
Semi-quantitative analysis of proteins binding to different plaque particles: Synuclein [4]: 1
Semi-quantitative analysis of proteins binding to different plaque particles: Tau (Tau plaque particles): 3

Ig heavy chain V-III region WA
Semi-quantitative analysis of proteins binding to different plaque particles: Abeta-42 [1]: 4
Semi-quantitative analysis of proteins binding to different plaque particles: Chl Large [2]: 1
Semi-quantitative analysis of proteins binding to different plaque particles: Chl small [3]: 2
Semi-quantitative analysis of proteins binding to different plaque particles: Synuclein [4]: 0
Semi-quantitative analysis of proteins binding to different plaque particles: Tau (Tau plaque particles): 1

Ig kappa chain C region
Semi-quantitative analysis of proteins binding to different plaque particles: Abeta-42 [1]: 11
Semi-quantitative analysis of proteins binding to different plaque particles: Chl Large [2]: 17
Semi-quantitative analysis of proteins binding to different plaque particles: Chl small [3]: 21
Semi-quantitative analysis of proteins binding to different plaque particles: Synuclein [4]: 15
Semi-quantitative analysis of proteins binding to different plaque particles: Tau (Tau plaque particles): 15

Ig kappa chain V-I region AU
Semi-quantitative analysis of proteins binding to different plaque particles: Abeta-42 [1]: 2
Semi-quantitative analysis of proteins binding to different plaque particles: Chl Large [2]: 1
Semi-quantitative analysis of proteins binding to different plaque particles: Chl small [3]: 1
Semi-quantitative analysis of proteins binding to different plaque particles: Synuclein [4]: 0
Semi-quantitative analysis of proteins binding to different plaque particles: Tau (Tau plaque particles): 0

Ig kappa chain V-I region CAR
Semi-quantitative analysis of proteins binding to different plaque particles: Abeta-42 [1]: 5
Semi-quantitative analysis of proteins binding to different plaque particles: Chl Large [2]: 1
Semi-quantitative analysis of proteins binding to different plaque particles: Chl small [3]: 1
Semi-quantitative analysis of proteins binding to different plaque particles: Synuclein [4]: 1
Semi-quantitative analysis of proteins binding to different plaque particles: Tau (Tau plaque particles): 1

Ig kappa chain V-I region DE
Semi-quantitative analysis of proteins binding to different plaque particles: Abeta-42 [1]: 5
Semi-quantitative analysis of proteins binding to different plaque particles: Chl Large [2]: 5
Semi-quantitative analysis of proteins binding to different plaque particles: Chl small [3]: 1
Semi-quantitative analysis of proteins binding to different plaque particles: Synuclein [4]: 3
Semi-quantitative analysis of proteins binding to different plaque particles: Tau (Tau plaque particles): 2

Ig kappa chain V-I region HK102
Semi-quantitative analysis of proteins binding to different plaque particles: Abeta-42 [1]: 5
Semi-quantitative analysis of proteins binding to different plaque particles: Chl Large [2]: 1
Semi-quantitative analysis of proteins binding to different plaque particles: Chl small [3]: 1
Semi-quantitative analysis of proteins binding to different plaque particles: Synuclein [4]: 1
Semi-quantitative analysis of proteins binding to different plaque particles: Tau (Tau plaque particles): 1

Ig kappa chain V-I region Mev
Semi-quantitative analysis of proteins binding to different plaque particles: Abeta-42 [1]: 0
Semi-quantitative analysis of proteins binding to different plaque particles: Chl Large [2]: 1
Semi-quantitative analysis of proteins binding to different plaque particles: Chl small [3]: 1
Semi-quantitative analysis of proteins binding to different plaque particles: Synuclein [4]: 0
Semi-quantitative analysis of proteins binding to different plaque particles: Tau (Tau plaque particles): 0

Ig kappa chain V-I region Ni
Semi-quantitative analysis of proteins binding to different plaque particles: Abeta-42 [1]: 5
Semi-quantitative analysis of proteins binding to different plaque particles: Chl Large [2]: 2
Semi-quantitative analysis of proteins binding to different plaque particles: Chl small [3]: 2
Semi-quantitative analysis of proteins binding to different plaque particles: Synuclein [4]: 2
Semi-quantitative analysis of proteins binding to different plaque particles: Tau (Tau plaque particles): 3

Ig kappa chain V-I region Wes
Semi-quantitative analysis of proteins binding to different plaque particles: Abeta-42 [1]: 2
Semi-quantitative analysis of proteins binding to different plaque particles: Chl Large [2]: 2
Semi-quantitative analysis of proteins binding to different plaque particles: Chl small [3]: 1
Semi-quantitative analysis of proteins binding to different plaque particles: Synuclein [4]: 2
Semi-quantitative analysis of proteins binding to different plaque particles: Tau (Tau plaque particles): 2

Ig kappa chain V-III region IARC/BL41
Semi-quantitative analysis of proteins binding to different plaque particles: Abeta-42 [1]: 0
Semi-quantitative analysis of proteins binding to different plaque particles: Chl Large [2]: 0
Semi-quantitative analysis of proteins binding to different plaque particles: Chl small [3]: 1
Semi-quantitative analysis of proteins binding to different plaque particles: Synuclein [4]: 0
Semi-quantitative analysis of proteins binding to different plaque particles: Tau (Tau plaque particles): 2

Ig kappa chain V-III region NG9
Semi-quantitative analysis of proteins binding to different plaque particles: Abeta-42 [1]: 0
Semi-quantitative analysis of proteins binding to different plaque particles: Chl Large [2]: 2
Semi-quantitative analysis of proteins binding to different plaque particles: Chl small [3]: 1
Semi-quantitative analysis of proteins binding to different plaque particles: Synuclein [4]: 2
Semi-quantitative analysis of proteins binding to different plaque particles: Tau (Tau plaque particles): 3
